Measurements taken from US20110183942A1, “Methods and Compositions for Treating Alzheimer's Disease” (UNIVERSITY OF MEDICINE AND DENTISTRY OF NEW JERSEY, priority 2008, published 2011).

Molecular target: T1, eEF2 kinase (Homo sapiens, UniProt O00418)
T1 construct: made in house; host or cells: E. coli
Assay: HTS screen for eEF2 kinase inhibitors (ATP depletion coupled to luciferase luminescence, eEF2p substrate)
Assay type: biochemical

Compound: CCCCCCCCCCCCCCCCN1C=CN(c2ccccc2)C1 [L-207]
- identified as inhibitor for eEF2 kinase: inhibitors for eEF2 kinase
